This experiment concerns the target T1, h-GABAA α2β2γ1 (Homo sapiens, UniProt P47869+Q8N1C3).
T1 sequence (P47869 29-451): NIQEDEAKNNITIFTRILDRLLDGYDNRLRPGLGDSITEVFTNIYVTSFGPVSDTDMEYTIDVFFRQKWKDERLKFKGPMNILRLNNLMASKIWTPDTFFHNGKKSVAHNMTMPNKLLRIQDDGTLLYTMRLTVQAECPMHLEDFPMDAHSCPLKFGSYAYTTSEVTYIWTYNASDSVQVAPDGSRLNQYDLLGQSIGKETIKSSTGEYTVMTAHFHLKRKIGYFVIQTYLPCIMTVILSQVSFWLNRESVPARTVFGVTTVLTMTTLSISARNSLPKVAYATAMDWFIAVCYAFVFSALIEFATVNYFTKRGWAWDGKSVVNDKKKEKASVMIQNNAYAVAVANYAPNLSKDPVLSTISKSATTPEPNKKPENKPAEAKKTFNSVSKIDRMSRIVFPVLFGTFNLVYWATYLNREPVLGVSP
T1 sequence (P47870 25-512 partner limits assumed): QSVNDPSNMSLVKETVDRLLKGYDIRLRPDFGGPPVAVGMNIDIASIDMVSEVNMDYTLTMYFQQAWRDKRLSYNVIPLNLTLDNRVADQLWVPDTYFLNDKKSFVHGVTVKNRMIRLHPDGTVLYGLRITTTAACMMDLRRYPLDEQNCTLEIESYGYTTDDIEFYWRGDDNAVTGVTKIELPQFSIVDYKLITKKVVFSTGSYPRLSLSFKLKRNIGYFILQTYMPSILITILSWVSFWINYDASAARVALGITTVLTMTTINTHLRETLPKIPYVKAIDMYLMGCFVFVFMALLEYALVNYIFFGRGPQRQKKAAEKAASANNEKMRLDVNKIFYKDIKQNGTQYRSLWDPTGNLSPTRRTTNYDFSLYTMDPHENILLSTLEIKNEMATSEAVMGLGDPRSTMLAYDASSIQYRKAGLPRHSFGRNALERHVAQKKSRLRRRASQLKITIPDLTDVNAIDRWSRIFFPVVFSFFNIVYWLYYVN
T1 sequence (Q8N1C3 36-465): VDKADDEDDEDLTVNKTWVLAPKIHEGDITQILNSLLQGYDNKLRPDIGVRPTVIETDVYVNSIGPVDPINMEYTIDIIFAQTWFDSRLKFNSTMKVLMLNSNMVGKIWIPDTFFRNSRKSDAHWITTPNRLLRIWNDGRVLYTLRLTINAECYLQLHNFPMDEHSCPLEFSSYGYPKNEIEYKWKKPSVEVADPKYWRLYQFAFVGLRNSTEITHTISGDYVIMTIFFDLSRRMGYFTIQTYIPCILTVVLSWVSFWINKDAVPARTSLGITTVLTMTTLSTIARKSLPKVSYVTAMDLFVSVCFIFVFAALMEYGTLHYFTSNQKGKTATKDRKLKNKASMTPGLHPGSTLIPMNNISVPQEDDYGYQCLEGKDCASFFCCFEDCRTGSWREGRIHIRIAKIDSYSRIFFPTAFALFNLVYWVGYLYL
The experiment in a line: Radioligand binding assay, [3H]RO7239181 competition, HEK293F membranes. Also on record: signal peptide of human GABAA α5 subunit (Met1 to Ser31), replacing the α2 signal peptide (N); expressed in transfected cells; host or cells: HEK293F cells (ThermoFisher R79007), membranes.
Consider `Cc1nnc2n1-c1ccc(I)c(Cl)c1C(c1c(F)cccc1F)=NC2` [Example 41, 7-chloro-6-(2,6-difluorophenyl)-8-iodo-1-methyl-4H-[1,2,4]triazolo[4,3-a][1,4]benzodiazepine], for which the Ki was determined as 5.5 nM.

As to `Fc1cccc(F)c1C1=NCc2nnc(-c3cccnn3)n2-c2ccc(Br)c(Br)c21` [Example 42, 7,8-dibromo-6-(2,6-difluorophenyl)-1-pyridazin-3-yl-4H-[1,2,4]triazolo[4,3-a][1,4]benzodiazepine], the Ki was determined as 5.5 nM.

Turning to `Fc1cccc(F)c1C1=NCc2nnc(-c3ccncn3)n2-c2ccc(Br)c(Br)c21` [Example 43, 7,8-dibromo-6-(2,6-difluorophenyl)-1-pyrimidin-4-yl-4H-[1,2,4]triazolo[4,3-a][1,4]benzodiazepine], the Ki turned out to be 5.8 nM.

`Clc1cccnc1C1=NCc2nnc(-c3ccncn3)n2-c2ccc(Br)c(Cl)c21` [Example 44, 8-bromo-7-chloro-6-(3-chloro-2-pyridyl)-1-pyrimidin-4-yl-4H-[1,2,4]triazolo[4,3-a][1,4]benzodiazepine] displayed a Ki of 9.6 nM.

In turn, `Fc1cccnc1C1=NCc2nnc(-c3cccnn3)n2-c2ccc(Br)c(Cl)c21` [Example 45, 8-bromo-7-chloro-6-(3-fluoro-2-pyridyl)-1-pyridazin-3-yl-4H-[1,2,4]triazolo[4,3-a][1,4]benzodiazepine] came in with an inhibition constant (Ki) of 15.8 nM.

Turning to `Fc1cccnc1C1=NCc2nnc(-c3ccncn3)n2-c2ccc(Br)c(Cl)c21` [Example 46, 8-bromo-7-chloro-6-(3-fluoro-2-pyridyl)-1-pyrimidin-4-yl-4H-[1,2,4]triazolo[4,3-a][1,4]benzodiazepine], the affinity corresponds to a Ki of 25.3 nM.

`Clc1cccnc1C1=NCc2nnc(-c3cccnn3)n2-c2ccc(Br)c(Cl)c21` [Example 47, 8-bromo-7-chloro-6-(3-chloro-2-pyridyl)-1-pyridazin-3-yl-4H-[1,2,4]triazolo[4,3-a][1,4]benzodiazepine] showed a Ki of 15.9 nM.

Consider `Cc1ccc2c(c1Cl)C(c1c(F)cccc1F)=NCc1nnc(-c3cccnn3)n1-2` [Example 48, 7-chloro-6-(2,6-difluorophenyl)-8-methyl-1-pyridazin-3-yl-4H-[1,2,4]triazolo[4,3-a][1,4]benzodiazepine], for which the affinity corresponds to a Ki of 8.3 nM.

In the case of `Cc1ccc2c(c1Cl)C(c1c(F)cccc1F)=NCc1nnc(-c3ccncn3)n1-2` [Example 49, 7-chloro-6-(2,6-difluorophenyl)-8-methyl-1-pyrimidin-4-yl-4H-[1,2,4]triazolo[4,3-a][1,4]benzodiazepine], the Ki was 14.1 nM. Against the preceding compound, the Ki is about 1.7-fold higher.

On to `Cc1nnc2n1-c1ccc(Br)c(Cl)c1C(c1c(F)cccc1Cl)=NC2` [Example 50, 8-bromo-7-chloro-6-(2-chloro-6-fluoro-phenyl)-1-methyl-4H-[1,2,4]triazolo[4,3-a][1,4]benzodiazepine], for which the Ki is 4.7 nM.

`Fc1cccnc1C1=NCc2nnc(-c3cccnn3)n2-c2ccc(Cl)c(Cl)c21` [Example 54, 7,8-dichloro-6-(3-fluoro-2-pyridyl)-1-pyridazin-3-yl-4H-[1,2,4]triazolo[4,3-a][1,4]benzodiazepine] yielded a Ki of 30.2 nM.

In the case of `Fc1cccnc1C1=NCc2nnc(-c3ccncn3)n2-c2ccc(Cl)c(Cl)c21` [Example 55, 7,8-dichloro-6-(3-fluoro-2-pyridyl)-1-pyrimidin-4-yl-4H-[1,2,4]triazolo[4,3-a][1,4]benzodiazepine], the Ki was 18.5 nM.

Consider `COc1ccc2c(c1Cl)C(c1c(F)cccc1F)=NCc1nnc(-c3cccnn3)n1-2` [Example 57, 7-chloro-6-(2,6-difluorophenyl)-8-methoxy-1-pyridazin-3-yl-4H-[1,2,4]triazolo[4,3-a][1,4]benzodiazepine], for which the Ki came out at 57.9 nM.

Compound `Cn1cc(-c2nnc3n2-c2ccc(Cl)c(Cl)c2C(c2ncccc2F)=NC3)cn1` [Example 58, 7,8-dichloro-6-(3-fluoro-2-pyridyl)-1-(1-methylpyrazol-4-yl)-4H-[1,2,4]triazolo[4,3-a][1,4]benzodiazepine] showed a Ki of 33.1 nM.

In the case of `O=c1[nH]nc2n1-c1ccc(Cl)c(Cl)c1C(c1ncccc1F)=NC2` [Example 59, 7,8-dichloro-6-(3-fluoro-2-pyridyl)-2,4-dihydro-[1,2,4]triazolo[4,3-a][1,4]benzodiazepin-1-one], the Ki was found to be 26.3 nM. The Ki values of the last two compounds are within 1.5-fold of each other.

For `Fc1cccnc1C1=NCc2nncn2-c2ccc(Cl)c(Cl)c21` [Example 60, 7,8-dichloro-6-(3-fluoro-2-pyridyl)-4H-[1,2,4]triazolo[4,3-a][1,4]benzodiazepine], affinity was put at a Ki of 38.9 nM. This Ki and that of the compound before are within 1.5-fold of each other.

The compound `COc1ccc2c(c1Cl)C(c1c(F)cccc1F)=NCc1nnc(-c3ccncn3)n1-2` [Example 61, 7-chloro-6-(2,6-difluorophenyl)-8-methoxy-1-pyrimidin-4-yl-4H-[1,2,4]triazolo[4,3-a][1,4]benzodiazepine] displayed a Ki of 77.6 nM.

Compound `COc1ccc2c(c1Cl)C(c1c(F)cccc1F)=NCc1nnc(-c3cccnc3)n1-2` [Example 62, 7-chloro-6-(2,6-difluorophenyl)-8-methoxy-1-(3-pyridyl)-4H-[1,2,4]triazolo[4,3-a][1,4]benzodiazepine] yielded a Ki of 55.3 nM.

Turning to `Fc1cccnc1C1=NCc2nnc(C3CC3)n2-c2ccc(Cl)c(Cl)c21` [Example 65, 7,8-dichloro-1-cyclopropyl-6-(3-fluoro-2-pyridyl)-4H-[1,2,4]triazolo[4,3-a][1,4]benzodiazepine], the Ki was 64.9 nM.

As for `Fc1cccnc1C1=NCc2nnc(-c3ccncn3)n2-c2ccc(C(F)(F)F)c(Cl)c21` [Example 69, 7-chloro-6-(3-fluoro-2-pyridyl)-1-pyrimidin-4-yl-8-(trifluoromethyl)-4H-[1,2,4]triazolo[4,3-a][1,4]benzodiazepine], the Ki amounted to 63.6 nM.

Consider `Cn1cc(-c2nnc3n2-c2ccc(C(F)(F)F)c(Cl)c2C(c2ncccc2F)=NC3)cn1` [Example 70, 7-chloro-6-(3-fluoro-2-pyridyl)-1-(1-methylpyrazol-4-yl)-8-(trifluoromethyl)-4H-[1,2,4]triazolo[4,3-a][1,4]benzodiazepine], for which affinity was put at a Ki of 41.4 nM.

For the compound `Cc1nnc2n1-c1ccc(Cl)c(Cl)c1C(c1ncccc1F)=NC2` [Example 71, 7,8-dichloro-6-(3-fluoro-2-pyridyl)-1-methyl-4H-[1,2,4]triazolo[4,3-a][1,4]benzodiazepine], the affinity corresponds to a Ki of 37.6 nM. This Ki and that of the compound before are within 1.5-fold of each other.

For `Fc1cccnc1C1=NCc2nnc(-c3cccnn3)n2-c2ccc(C(F)(F)F)c(Cl)c21` [Example 72, 7-chloro-6-(3-fluoro-2-pyridyl)-1-pyridazin-3-yl-8-(trifluoromethyl)-4H-[1,2,4]triazolo[4,3-a][1,4]benzodiazepine], the affinity corresponds to a Ki of 30.1 nM. The Ki values of the last two compounds are within 1.5-fold of each other.

Take `Fc1cccnc1C1=NCc2nnc(C3CC3)n2-c2ccc(Br)c(Cl)c21` [Example 77, 8-bromo-7-chloro-1-cyclopropyl-6-(3-fluoro-2-pyridyl)-4H-[1,2,4]triazolo[4,3-a][1,4]benzodiazepine]: the affinity corresponds to a Ki of 19.6 nM.

In turn, `Cc1nnc2n1-c1ccc(C(F)(F)F)c(Cl)c1C(c1ncccc1F)=NC2` [Example 78, 7-chloro-6-(3-fluoro-2-pyridyl)-1-methyl-8-(trifluoromethyl)-4H-[1,2,4]triazolo[4,3-a][1,4]benzodiazepine] gave a Ki of 50.8 nM. This Ki is about 2.6-fold higher than that of the compound before.

`COc1ccc2c(c1Cl)C(c1c(F)cccc1F)=NCc1nnc(C3CC3)n1-2` [Example 79, 7-chloro-1-cyclopropyl-6-(2,6-difluorophenyl)-8-methoxy-4H-[1,2,4]triazolo[4,3-a][1,4]benzodiazepine] had a Ki of 51.2 nM.

On to `COc1nnc2n1-c1ccc(Cl)c(Cl)c1C(c1c(F)cccc1F)=NC2` [Example 90, 7,8-dichloro-6-(2,6-difluorophenyl)-1-methoxy-4H-[1,2,4]triazolo[4,3-a][1,4]benzodiazepine], for which the Ki was 5.8 nM. This Ki is about 8.8-fold lower than that of the compound before.

Usually Ki stands for the equilibrium dissociation constant of an inhibitor or competing ligand from its target. A lower Ki goes with a stronger hold on the target.

The record behind these values is patent publication US20230141603A1, “BENZODIAZEPINE DERIVATIVES AS GABA A GAMMA1 PAM” (Hoffmann-La Roche Inc., priority 2021, published 2023).
